The values that follow come from US6777578B2, “Hydroxyphenstatin and the prodrugs thereof” (Arizona Board of Regents, priority 2000, dated 2004).

Values after ≈ are worked out from the molar mass of the structure shown. Like-named read-outs stand apart in the source and are kept apart here.

The term IC50 denotes the concentration needed to halve the response being measured. Broadly, the melting point is the temperature, or range, at which the solid turns liquid. Broadly, the GI50 is the concentration that inhibits growth by half. Broadly, the solubility is the dissolved amount per volume that the medium holds. A lower solubility goes with a poorly soluble substance.

In data set [1] the test system is tubulin. The data set can be described thus: Tubulin polymerization assay. Format: biochemical. The settings on record: read-out: Inhibition of Tubulin Polymerization (μM IC50 ± SD). How it is done: (§1) The tubulin polymerization and colchicine binding assays were performed as described previously (See: […]), except that Beckman DU7400/7500 spectrophotometers equipped with “high performance” temperature controllers were used in the former assay. Unlike the manual control possible with the previously used Gilford spectrophotometers, the polymerization assays required use of programs provided by MDB analytical Associates, South Plainfield, N.J., since the Beckman instruments are microprocessor controlled. The Beckman instruments were unable to maintain 0° C., and the lower temperature in the assays fluctuated between 2 and 4° C. Temperature changes were, however, more rapid than in the Gilford instruments with the jump from the lower temperature to 30° C. taking about 20 sec. and the reverse jump about 100 sec.

The test system of data set [2] is tubulin. Nature of the data set: Colchicine binding assay. The settings on record: [3H]colchicine binding to tubulin. As for the experimental part: as §1
The subject of data set [3] is two fungal and eight bacterial strains. Nature of the data set: Antibiotic screening against the whole panel. The class given is cell-based. The following applies: for inhibition of growth of the two fungal and eight bacterial strains tested: at 100 μg/disk. The text has this: (§2) The new substances were screened against the bacteria Stenotrophomonas maltophilia, Micrococcus luteus, Staphylococcus aureus, Escherichia coli, Enterobacter cloacae, Enterococcus faecalis, Streptococcus pneumoniae, Neisseria gonorrhoeae, and the fungi Candida albicans and Cryptococcus neoformans, according to established disk susceptibility testing protocols.

The subject of data set [4] is DU-145. The data set can be described thus: Human cancer cell growth inhibition, prostate DU-145. Format: cell-based. How it is done:
(§3) The following measures are used to express drug activity giving the drug dose, which reduces cell growth to a specified percentage of growth:
(§4) ED50 (P388) and GI50 (HTCL) are the drug doses needed to reduce the percent growth to 50%. There is no mathematical difference between ED50 and GI50, which are both calculated using the same formula. The only difference is historical usage.
(§5) Each drug is tested at five (5) doses: 100-10-1-0.1-0.01 μg/ml. Percent Growths are calculated for each dose. The two (or three) doses with growth values above, below, (or near to) 50% growth are used to calculate the ED50/GI50 using a linear regression formula. The log of the dose is used during the regression computation. If no dose yields a growth value under 50%, the results are expressed as: ED50>(highest dose). If no dose yields a growth value higher than 50%, then ED50<(lowest dose). Similar calculations are performed for the TGI at 0% growth, and at −50% growth for the LC50.

Data set [5] relates to KM20L2. Nature of the data set: Human cancer cell growth inhibition, colon KM20L2. Format: cell-based. How it is done:
as §3, §4, §5

For data set [6], the system named is NCI-H460. Nature of the data set: Human cancer cell growth inhibition, lung-NSC NCI-H460. Format: cell-based. How it is done:
as §3, §4, §5

Data set [7] deals with RPMI-7951. The data set can be described thus: Human cancer cell growth inhibition, melanoma RPMI-7951. Format: cell-based. How it is done:
as §3, §4, §5

In data set [8] the test system is SF-295. Nature of the data set: Human cancer cell growth inhibition, CNS SF-295. Format: cell-based. As for the experimental part:
as §3, §4, §5

Data set [9] has as its system BXPC-3. Nature of the data set: Human cancer cell growth inhibition, pancreas BXPC-3. The class given is cell-based. The following applies: Pancreas-a. As for the experimental part: as §3, §4, §5
Data set [10] has as its system P388. The data set can be described thus: Cancer cell growth inhibition, murine P388 lymphocytic leukemia. The class given is cell-based. How it is done: as §3, §4, §5
Data set [11] concerns NCI 60-cell screen. The data set can be described thus: NCI 60-cell screen. Format: cell-based. The settings on record: read-out: mean-panel GI50.
Data set [12] has as its system Micrococcus luteus. The data set can be described thus: Disk susceptibility testing, Micrococcus luteus. Format: cell-based.
From the text: as §2

A short description of data set [13]: Solubility in distilled water. The class given is physicochemical. The following applies: distilled water at 25° C.
In data set [14] the test system is Escherichia coli. The data set can be described thus: Disk susceptibility testing, Escherichia coli. Format: cell-based.
From the text: as §2

Data set [15] has as its system Neisseria gonorrhoeae. The data set can be described thus: Disk susceptibility testing, Neisseria gonorrhoeae. The class given is cell-based.
From the text: as §2

In data set [16] the test system is Staphylococcus aureus. The data set can be described thus: Disk susceptibility testing, Staphylococcus aureus. Format: cell-based.
From the text: as §2

Data set [17] deals with Stenotrophomonas maltophilia. Nature of the data set: Disk susceptibility testing, Stenotrophomonas maltophilia. The class given is cell-based.
From the text: as §2

Data set [18] concerns Cryptococcus neoformans. Nature of the data set: Disk susceptibility testing, Cryptococcus neoformans. The class given is cell-based.
From the text: as §2

Data set [19] relates to Candida albicans. Nature of the data set: Disk susceptibility testing, Candida albicans. Format: cell-based.
From the text: as §2

On to `COc1ccc(/C=C\c2cc(OC)c(OC)c(OC)c2)c(O)c1O` [Compound 3a, combretastatin A-1, reference compound], for which the IC50 in data set [1] amounted to 1.1 ± 0.07 µM. Besides, in data set [2], the “% Inhibition of Colchicine Binding ± SD” value was 99.6 ± 0.7%.
Take `COc1ccc(/C=C\c2cc(OC)c(OC)c(OC)c2)cc1O` [Compound 3b, combretastatin A-4]: the IC50 in [1] came out at […].
Take `COc1ccc(/C=C\c2cc(OC)c(OC)c(OC)c2)cc1OP(=O)(O)O` [Compound 3c]: the IC50 in data set [1] was > 40 µM.
`COc1ccc(C(=O)c2cc(OC)c(OC)c(OC)c2)c(O)c1O` [Compound 6a] displayed a melting point of 171.1 to 171.9 °C. Besides, the “inhibition of growth of the two fungal and eight bacterial strains tested” value in data set [3] is given as “none of these compounds inhibited growth”. Also, the GI50 in [4] (Homo sapiens, read-out: GI50) was determined as 0.048 µg/mL (≈ 0.144 µM). Further, the GI50 in data set [5] (Homo sapiens, KM-20L2, read-out: GI50) was found to be 1.2 µg/mL (≈ 3.59 µM). In addition, the GI50 in data set [6] (Homo sapiens, read-out: GI50) amounted to 0.21 µg/mL (≈ 0.628 µM). Further, the GI50 in [7] (Homo sapiens, read-out: GI50) was 0.58 µg/mL (≈ 1.73 µM). The GI50 in data set [8] (Homo sapiens, read-out: GI50) was found to be 0.04 µg/mL (≈ 0.12 µM). Moreover, the GI50 in data set [9] (Homo sapiens, read-out: GI50) stood at 3.3 µg/mL (≈ 9.87 µM). The IC50 in data set [1] turned out to be 0.82 ± 0.2 µM. Further, in [10] (Mus musculus, read-out: GI50), the GI50 was 0.315 µg/mL (≈ 0.942 µM). Besides, the “% Inhibition of Colchicine Binding ± SD” value in data set [2] came to 77 ± 4%. In data set [11] (60 cell), the GI50 is 167 nM.
Consider `COCOc1c(OC)ccc(C(=O)c2cc(OC)c(OC)c(OC)c2)c1OCOC` [Compound 6c, 2′,3′-Bis(methoxymethyloxy)-3,4,4′,5-tetramethoxybenzophenone], for which the melting point lay in the range of 70.2 to 71.7 °C. Further, in data set [3], the “inhibition of growth of the two fungal and eight bacterial strains tested” value was “none of these compounds inhibited growth”. In addition, the GI50 in data set [4] (Homo sapiens, read-out: GI50) was > 10 µg/mL. Besides, in data set [6] (Homo sapiens, read-out: GI50), the GI50 was > 10 µg/mL. In addition, in [7] (Homo sapiens, read-out: GI50), the 50% growth inhibitory concentration (GI50) was > 10 µg/mL. Also, the GI50 in [8] (Homo sapiens, read-out: GI50) is > 10 µg/mL. Also, the GI50 in data set [9] (Homo sapiens, read-out: GI50) is > 10 µg/mL. Besides, the GI50 in [10] (Mus musculus, read-out: GI50) is > 10 µg/mL.
On to `COc1cc(C(=O)c2ccc(OC)c(OP(=O)(OCc3ccccc3)OCc3ccccc3)c2OP(=O)(OCc2ccccc2)OCc2ccccc2)cc(OC)c1OC` [Compound 6d, 2′,3′-O-Di-(bisbenzylphosphoryl)-hydroxyphenstatin], for which the GI50 in data set [4] is >10 µg/mL; in data set [6] it was >10 µg/mL; in data set [7], >10 µg/mL; in [8], >10 µg/mL; in data set [9], >10 µg/mL; in data set [10], 2.55 µg/mL (≈ 2.98 µM). The “Minimum inhibitory Concentration (μg/disk)” value in data set [12] is on record as 50-100 μg/disk.
In the case of `COc1cc(C(=O)c2ccc(OC)c(OP(=O)([O-])[O-])c2OP(=O)([O-])[O-])cc(OC)c1OC.[Na+].[Na+].[Na+].[Na+]` [Compound 6e, Sodium Hydroxyphenstatin Diphosphate], the “antifungal and/or antibacterial action” value in data set [3] is on record as “did not”. The GI50 is 0.3 µg/mL in [4]; 5.9 µg/mL in data set [5]; 0.35 µg/mL in data set [6]; 0.23 µg/mL in data set [8]; 5.3 µg/mL in [9]; 0.0336 µg/mL in data set [10]. Further, in data set [11] (NCI 60-cell screen, mean of panel), the GI50 came to 167 nM. The molecule also returned a solubility in data set [13] of 100 mg/mL. For the same molecule, the IC50 in [1] was > 40 µM.
`COc1cc(C(=O)c2ccc(OC)c(OP(=O)([O-])[O-])c2OP(=O)([O-])[O-])cc(OC)c1OC.[Li+].[Li+].[Li+].[Li+]` [Compound 6f, Lithium Hydroxyphenstatin Diphosphate] returned a solubility in data set [13] of 25 mg/mL.
Consider `COc1cc(C(=O)c2ccc(OC)c(OP(=O)([O-])[O-])c2OP(=O)([O-])[O-])cc(OC)c1OC.[Ca+2].[Ca+2]` [Compound 6h, Calcium Hydroyphenstatin Diphosphate], for which the solubility in data set [13] was < 1 mg/mL.
`COc1ccc(Br)c(O)c1O` [Compound 7a, 1-Bromo-2,3dihydroxy-4methoxy-benzene] gave a melting point of 122.3 to 124.3 °C. Further, the “Minimum inhibitory Concentration (μg/disk)” value in [14] is 50-100 μg/disk. The “Minimum inhibitory Concentration (μg/disk)” value in data set [15] is <6.25 μg/disk. Moreover, the “Minimum inhibitory Concentration (μg/disk)” value in data set [16] was 25-50 μg/disk. For the same molecule, the “Minimum inhibitory Concentration (μg/disk)” value in data set [17] is 25-50 μg/disk.
The molecule `COc1ccc(Br)c(O[Si](C)(C)C(C)(C)C)c1O[Si](C)(C)C(C)(C)C` [Compound 7b, 1-Bromo-2,3-bis(tert-butyldimethylsilyl-oxy)-4-methoxy-benzene] displayed a melting point of 68.9 to 69.6 °C. The “inhibition of growth of the two fungal and eight bacterial strains tested” value in data set [3] is listed as “none of these compounds inhibited growth”.
Regarding `COc1cc(C(=O)N2CCOCC2)cc(OC)c1OC` [Compound 8a, N-(3,4,5Trimethoxybenzoyl)-morpholine], the “inhibition of growth of the two fungal and eight bacterial strains tested” value in [3] is given as “none of these compounds inhibited growth”.
In turn, `COc1cccc(C=O)c1OC(C)=O` [Compound 10, 2-Acetoxy-3methoxy-benzaldehyde] displayed a melting point of 75.4 to 76.2 °C. Moreover, the “Minimum inhibitory Concentration (μg/disk)” value in data set [18] was 25-50 μg/disk. Further, the “Minimum inhibitory Concentration (μg/disk)” value in data set [17] is 50-100 μg/disk.
For `COc1ccc(Br)c(C=O)c1OC(C)=O` [Compound 11, 2-Acetoxy-3methoxy-6bromo-benzaldehyde], the melting point lay in the range of 121.6 to 123.4 °C. In data set [14], the “Minimum inhibitory Concentration (μg/disk)” value is 50-100 μg/disk. Moreover, in data set [15], the “Minimum inhibitory Concentration (μg/disk)” value is 25-50 μg/disk. Besides, in data set [19], the “Minimum inhibitory Concentration (μg/disk)” value is recorded as 12.5-25 μg/disk. In addition, the “Minimum inhibitory Concentration (μg/disk)” value in [18] was 6.25-12.5 μg/disk.
On to `COc1ccc(Br)c(C=O)c1O` [Compound 12, 2-Hydroxy-3-methoxy-6bromo-benzaldehyde], for which the results for the “Minimum inhibitory Concentration (μg/disk)” value in [15], in data set [19] and in [18] were 12.5-25 μg/disk, 50-100 μg/disk and 12.5-25 μg/disk, respectively.
`COc1cc(C(=O)c2ccc(OC)c(OC)c2OC)cc(OC)c1OC` [Compound 13, 2′,3,3′,4,4′,5-Hexamethoxybenzophenone]: the melting point is 124.6 to 125.9 °C. In [3], the “inhibition of growth of the two fungal and eight bacterial strains tested” value is given as “none of these compounds inhibited growth”.
Turning to `COc1cc(C(O)c2ccc(OC)c(OC)c2OC)cc(OC)c1OC` (stereo not shown) [Compound 14, 2′,3,3′,4,4′,5Hexamethoxydiphenylcarbinol], the “inhibition of growth of the two fungal and eight bacterial strains tested” value in [3] is given as “none of these compounds inhibited growth”.
With `COCOc1c(OC)ccc(C(O)c2cc(OC)c(OC)c(OC)c2)c1OCOC` (stereo not shown) [Compound 15, 2′,3′-Bis(methoxymethyloxy)-3,4,4′,5tetramethoxydiphenylcarbinol], the melting point is 79.9 to 81.8 °C. Also, the “inhibition of growth of the two fungal and eight bacterial strains tested” value in data set [3] was “none of these compounds inhibited growth”.
